Laboratory results reported in US6270957A, “Non-Imuunosuppressive cyclosporins and their use in the prevention and treatment of HIV infection” (Wisconsin Alumni Research Foundation, priority 1999, dated 2001).
Square brackets hold non-standard residues; d marks the D form. Side chains are listed from the residue outwards. Peptide text beside a SMILES is read from it. * marks the point of attachment. X2 = CC(C)CN(C[C@@H](O)[C@H](Cc1ccc(OCC(=O)*)cc1)NC(=O)O[C@H]1CCOC1)S(=O)(=O)c1ccc(N)cc1; X1 = NC(=O)C[C@H](NC(=O)OCc1ccccc1)C(=O)N[C@@H](Cc1ccccc1)[C@@H](O)CN1CCC[C@H]1C(=O)*; X3 = CC(C)(C)c1cc(OCC(=O)*)ccc1Sc1c(O)cc(-c2ccccc2)oc1=O; NMeLeu(3R-OH) = CN[C@H](C(=O)O)[C@H](O)C(C)C; NMeL = CN[C@@H](CC(C)C)C(=O)O; NMeV = CN[C@H](C(=O)O)C(C)C; dNMeS = CN[C@H](CO)C(=O)O; Abu = CC[C@H](N)C(=O)O

What was measured:
HIV protease = target: T1, HIV protease (Human immunodeficiency virus type 1 group M subtype B, UniProt P04585); assay: Inhibition of HIV protease; type: biochemical; conditions: read-out: Ki against HIV protease
T1 construct: HIV protease is an aspartic protease that cleaves the immature viral protein gag-pol into mature structural proteins and enzymes

cyclophilin = cyclophilin (Homo sapiens, UniProt P62937); assay: Inhibition of cyclophilin; type: biochemical; conditions: read-out: Ki against cyclophilin
Chain of cyclophilin (P62937 whole entry): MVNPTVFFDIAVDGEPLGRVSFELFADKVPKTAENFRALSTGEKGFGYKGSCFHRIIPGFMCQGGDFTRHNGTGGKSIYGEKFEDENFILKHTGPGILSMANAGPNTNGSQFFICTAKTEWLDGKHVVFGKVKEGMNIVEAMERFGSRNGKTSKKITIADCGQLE

[1] = compared with DMP-323; cited from earlier work
HIV = conditions: read-out: anti-HIV potency IC90; cited from earlier work
HIV-1 = conditions: CEM cells, HIV-1, 6 days, XTT; quadruplicate runs
Procedure: The procedure used in the National Cancer Institute's test for agents active against human immunodeficiency virus (HIV) is designed to detect agents acting at any stage of the virus reproductive cycle. The assay basically involves the killing of T4 lymphocytes by HIV. Small amounts of HIV are added to cells, and two cycles of virus reproduction are necessary to obtain the required cell killing. Agents that interact with virions, cells, or virus gene-products to interfere with viral activities will protect cells from cytolysis. The system is automated in several features to accommodate large numbers of candidate agents and is generally designed to detect anti-HIV activity. However, compounds that degenerate or are rapidly metabolized in the culture conditions may not show activity in this screen. All tests are compared with at least one positive (e.g., AZT-treated) control done at the same time under identical conditions.
Candidate agent is dissolved in dimethyl sulfoxide (unless otherwise instructed) then diluted 1:100 in cell culture medium before preparing serial half-log10 dilutions. […]
Individual wells are analyzed spectrophotometrically to quantitate formazan production, and in addition are viewed microscopically for detection of viable cells and confirmation of protective activity. […]

Compound	Ki (HIV protease) [nM]	Ki (cyclophilin) [nM]	plasma concentrations [1]	IC90 (HIV) [nM]	NCI determination of anti-HIV activity (HIV-1)
CC[C@@H]1NC(=O)[C@H]([C@H](O)C(C)C)N(C)C(=O)[C@H](C(C)C)N(C)C(=O)[C@H](CC(C)C)N(C)C(=O)[C@H](CC(C)C)N(C)C(=O)[C@@H](C)NC(=O)[C@H](CCCCNC(=O)COc2ccc(Sc3c(O)cc(-c4ccccc4)oc3=O)c(C(C)(C)C)c2)NC(=O)[C@H](CC(C)C)N(C)C(=O)[C@H](C(C)C)NC(=O)[C@H](CC(C)C)N(C)C(=O)[C@@H](CO)N(C)C1=O [Compound 2.9] (cyclo([Abu][dNMeS][NMeL]V[NMeL]K(X3)[dA][NMeL][NMeL][NMeV][NMeLeu(3R-OH)]))	3.4	9.3	–	–	–
Nc1cccc(CN2C(=O)N(Cc3cccc(N)c3)[C@H](Cc3ccccc3)[C@H](O)[C@@H](O)[C@H]2Cc2ccccc2)c1 [DMP-450]	–	–	much higher plasma concentrations	–	–
CC[C@@H]1NC(=O)[C@H]([C@H](O)C(C)C)N(C)C(=O)[C@H](C(C)C)N(C)C(=O)[C@H](CC(C)C)N(C)C(=O)[C@H](CC(C)C)N(C)C(=O)[C@@H](C)NC(=O)[C@H](CCCCNC(=O)[C@H](Cc2ccccc2)NC(=O)[C@@H](NC(=O)[C@@H]2CCCN2C[C@H](O)[C@H](Cc2ccccc2)NC(=O)[C@H](CC(N)=O)NC(=O)OCc2ccccc2)[C@@H](C)CC)NC(=O)[C@H](CC(C)C)N(C)C(=O)[C@H](C(C)C)NC(=O)[C@H](CC(C)C)N(C)C(=O)[C@@H](CO)N(C)C1=O [Compound 2.8] (cyclo([Abu][dNMeS][NMeL]V[NMeL]K([Phe-Ile-X1])[dA][NMeL][NMeL][NMeV][NMeLeu(3R-OH)]))	1	20	–	–	–
O=C(Nc1nc2ccccc2[nH]1)c1cccc(CN2C(=O)N(Cc3cccc(C(=O)Nc4nc5ccccc5[nH]4)c3)[C@H](Cc3ccccc3)[C@H](O)[C@@H](O)[C@H]2Cc2ccccc2)c1 [SD-146]	–	–	–	5.1	–
CC[C@@H]1NC(=O)[C@H]([C@H](O)C(C)C)N(C)C(=O)[C@H](C(C)C)N(C)C(=O)[C@H](CC(C)C)N(C)C(=O)[C@H](CC(C)C)N(C)C(=O)[C@@H](C)NC(=O)[C@H](CCCCNC(=O)COc2ccc(C[C@H](NC(=O)O[C@H]3CCOC3)[C@H](O)CN(CC(C)C)S(=O)(=O)c3ccc(N)cc3)cc2)NC(=O)[C@H](CC(C)C)N(C)C(=O)[C@H](C(C)C)NC(=O)[C@H](CC(C)C)N(C)C(=O)[C@@H](CO)N(C)C1=O [Compound 2.10] (cyclo([NMeLeu(3R-OH)][Abu][dNMeS][NMeL]V[NMeL]K(X2)[dA][NMeL][NMeL][NMeV]))	2.3	6	–	–	confirmed active
